Earlier results as cited in patent publication US20240307300A1, “AN IMPROVED PROCESS FOR THE PREPARATION OF AN AQUEOUS OPHTHALMIC SOLUTION OF DIFLUPREDNATE” (SUN PHARMA ADVANCED RESEARCH COMPANY LIMITED, priority 2021, published 2024).

Conditions: background statement

solubility in aqueous vehicle: practically insoluble
SMILES: CCCC(=O)O[C@]1(C(=O)COC(C)=O)CC[C@H]2[C@@H]3C[C@H](F)C4=CC(=O)C=C[C@]4(C)[C@@]3(F)[C@@H](O)C[C@@]21C [Difluprednate]
